Values of other authors as cited in US8748497B2, “Optimized fluorocarbon emulsions for blood substitutes and other therapeutic uses” (Alliance Pharmaceutical Corp., priority 2006, dated 2014).

Settings: components of FLUOSOL; cited from earlier work

SMILES: FC1(F)C(F)(F)C(F)(F)C2(F)C(F)(F)C(F)(F)C(F)(F)C(F)(F)C2(F)C1(F)F (centres unmarked) [F-decalin, perfluorodecalin]
- rate constant for RES elimination (k24): 0.10 day⁻¹

SMILES: FC(F)(F)C(F)(F)C(F)(F)N(C(F)(F)C(F)(F)C(F)(F)F)C(F)(F)C(F)(F)C(F)(F)F [F-tripropylamine, perfluorotripropylamine]
- rate constant for RES elimination (k24): 0.011 day⁻¹
